Tests used:
[1] = test system: CCR4-positive cells; design: method as in earlier work; settings: migration induced by MDC, TARC, and CKLF1; cited from earlier work
[2] = target: T1, CCR4 (Homo sapiens, UniProt P51679); assay: CCR4-MDC chemotaxis inhibition assay (48-well Boyden chamber, L1.2 cells transfected with pcDI-CCR4); assay type: cell-based; settings: for IC50: MDC 10 ng/mL, L1.2 cells transfected with pcDI-CCR4, compound preincubation 30 min at 37 °C, chamber 6 h, assayed three times, NA = no significant inhibition; for Chemotaxis inhibition activity against CCR4 (in words, compared with compound 1): CCR4-MDC chemotaxis inhibition assay, compound 1 as positive control
T1 construct: expressed in transfected cells; host or cells: L1.2 cells transfected with pcDI-CCR4
T1 sequence (P51679 1-360): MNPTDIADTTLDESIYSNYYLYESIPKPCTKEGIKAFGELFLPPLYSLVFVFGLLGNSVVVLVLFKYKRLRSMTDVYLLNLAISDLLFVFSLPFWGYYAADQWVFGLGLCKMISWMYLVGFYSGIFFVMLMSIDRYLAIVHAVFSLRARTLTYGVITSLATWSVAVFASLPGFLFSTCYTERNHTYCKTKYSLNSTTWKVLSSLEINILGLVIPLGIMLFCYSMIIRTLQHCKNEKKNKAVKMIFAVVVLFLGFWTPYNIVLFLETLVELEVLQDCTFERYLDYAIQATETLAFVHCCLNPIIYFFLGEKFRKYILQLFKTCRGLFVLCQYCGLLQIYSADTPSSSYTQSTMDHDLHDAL
Experimental: All the newly synthesized compounds were evaluated by a CCR4-MDC chemotaxis inhibition assay. Compound 1 was employed as the positive control.
The quantitative chemotaxis assays were performed using 48-well Boyden chambers (Neutroprobe, Bethesda, MD, USA) with polyvinylpyrrolidone-free polycarbonate filters with 5 μm pores. The MDC (Peprotech, Rocky Hill, NJ, USA) with a final concentration of 10 ng/mL was added into the lower wells. The L1.2 cells that were transfected with pcDI-CCR4 were suspended in assay buffer at 3 × 10^6 cells/mL, incubated with various final concentrations of compounds for 30 min at 37 °C, and then added to the upper wells. The chamber was incubated for 6 h at 37 °C in an atmosphere containing 5% CO2, and then the upper chambers were removed. The chemotaxis buffer in the lower wells was then harvested and mixed with 25 μL of the luciferase-containing reagent, Cell-Titer Glo. The number of L1.2 cells in the lower well medium was measured with a Veritas Microplate Luminometer (Turner BioSystems, Sunnyvale, CA, USA). All samples were assayed three times. The negative control samples and solvent control samples were defined as the cells migrating toward the lower wells in the absence of chemokine, and as the cells migrating toward the MDC-containing lower wells in the absence of compound in the presence of DMSO, respectively. The percentage of inhibition was determined by the following equation: inhibition = (C − A)/(C − B) × 100%, where A indicates the number of cells in the sample, B indicates the number of cells in the negative control sample and C indicates the number of cells in the solvent control sample. The results are expressed as an IC50 value (sample concentration that inhibits 50% chemotaxis) and calculated using Origin 8.0 software.

Row | SMILES | Inhibition of migration of CCR4-positive cells [1] | IC50 [2] | Chemotaxis inhibition activity against CCR4 (in words, compared with compound 1) [2] | melting point
1 | O=C([C@H]1CCCCN1)N1CCN(c2nc(Cl)cc(NCc3ccc(Cl)cc3Cl)n2)CC1 [Compound 1] | inhibit the migration of CCR4-positive cells | 78 ± 13 nM |  | 
2 | O=C(c1ccccn1)N1CCN(c2nc(Cl)cc(NCc3ccc(Cl)cc3Cl)n2)CC1 [Compound 6a, 6-Chloro-2-[4-(pyridin-2-yl)carbonylpiperazino]-N-(2,4-dichlorobenzyl)pyrimidin-4-amine] |  |  | did not result in significant inhibition activity | 
3 | O=C(C1CCCCC1)N1CCN(c2nc(Cl)cc(NCc3ccc(Cl)cc3Cl)n2)CC1 [Compound 6b, 6-Chloro-2-(4-cyclohexylcarbonylpiperazino)-N-(2,4-dichlorobenzyl)pyrimidin-4-amine] |  |  | did not result in significant inhibition activity | 175.3 to 177.1 °C
4 | CN(C)CC(=O)N1CCN(c2nc(Cl)cc(NCc3ccc(Cl)cc3Cl)n2)CC1 [Compound 6c, 6-Chloro-2-[4-(N,N-dimethylaminomethyl)carbonylpiperazino]-N-(2,4-dichlorobenzyl)pyrimidin-4-amine] |  | 64 ± 15 nM |  | 166.5 to 168.5 °C
5 | O=C([C@H]1CCCCN1)N1CCN(c2nc(Cl)cc(NCc3ccc(Cl)cc3)n2)CC1 [Compound 6d, (R)-6-Chloro-2-[4-(piperidin-2-yl)carbonylpiperazino]-N-(4-chlorobenzyl)pyrimidin-4-amine] |  | 458 ± 51 nM | significantly reduced activity | 
6 | O=C([C@H]1CCCCN1)N1CCN(c2nc(Cl)cc(NCc3ccc(F)cc3F)n2)CC1 [Compound 6e] |  | 94 ± 17 nM | slightly reduced activity | 87.2 to 89 °C
7 | O=C([C@H]1CCCCN1)N1CCN(c2nc(NCc3ccc(Cl)cc3Cl)cc(N3CCCCC3)n2)CC1 [Compound 7a, (R)-2-[4-(Piperidin-2-yl)carbonylpiperazino]-N-(2,4-dichlorobenzyl)-6-piperidino pyrimidin-4-amine] |  | 133 ± 21 nM | relatively poorer activity | 
8 | O=C([C@H]1CCCCN1)N1CCN(c2nc(NCc3ccc(Cl)cc3Cl)cc(N3CCOCC3)n2)CC1 [Compound 7b, (R)-2-[4-(Piperidin-2-yl)carbonylpiperazino]-N-(2,4-dichlorobenzyl)-6-morpholino pyrimidin-4-amine] |  | 395 ± 66 nM | relatively poorer activity | 167.8 to 169.5 °C
9 | Cc1cc(NCc2ccc(Cl)cc2Cl)nc(N2CCN(C(=O)[C@H]3CCCCN3)CC2)n1 [Compound 12a, (R)-2-[4-(Piperidin-2-yl)carbonylpiperazino]-N-(2,4-dichlorobenzyl)-6-methylpyrimidin-4-amine] |  | 77 ± 13 nM |  | 82.6 to 84.5 °C
10 | Cc1cc(NCc2ccc(Cl)cc2Cl)nc(N2CCN(C(=O)CN(C)C)CC2)n1 [Compound 12b, 2-[4-(N,N-dimethylaminomethyl)carbonylpiperazino]-N-(2,4-dichlorobenzyl)-6-methyl pyrimidin-4-amine] |  | 69 ± 15 nM |  | 
11 | Cc1cc(NCc2ccc(Cl)cc2Cl)nc(N2CCN(C(=O)C3CCN(C)CC3)CC2)n1 [Compound 12c, 2-[4-(N-methylpiperidin-4-yl)carbonylpiperazino]-N-(2,4-dichlorobenzyl)-6-methylpyrimidin-4-amine] |  | 178 ± 28 nM | relatively weak activity | 146.4 to 148 °C
12 | Cc1cc(NCc2ccc(Cl)cc2Cl)nc(N2CCN(C(=O)[C@H]3CCCO3)CC2)n1 [Compound 12d, (R)-2-[4-(Tetrahydrofuran-2-yl)carbonylpiperazino]-N-(2,4-dichlorobenzyl)-6-methylpyrimidin-4-amine] |  | 235 ± 45 nM | relatively weak activity | 124.3 to 125.8 °C

Reference: PMC6271259, “Design, Synthesis and SAR Study of Novel Trisubstituted Pyrimidine Amide Derivatives as CCR4 Antagonists” (Molecules, 2014)
